Results reported in ChEMBL document CHEMBL3352227, “Synthesis, antimycobacterial and antibacterial evaluation of l-[(1R, 2S)-2-fluorocyclopropyl]fluoroquinolone derivatives containing an oxime functional moiety” (Eur J Med Chem, 2014).
Converted amounts (≈) assume the structure as drawn.

Key:
Format in all cases: functional
Streptococcus pneumoniae [1] = test: Antibacterial activity against Streptococcus pneumoniae 12-18 after 18 to 24 hrs by standard twofold serial dilution method
Staphylococcus aureus [2] = test: Antibacterial activity against methicillin-resistant Staphylococcus aureus 12-2 after 18 to 24 hrs by standard twofold serial dilution method
Klebsiella pneumoniae [3] = test: Antibacterial activity against Klebsiella pneumoniae 12-1 after 18 to 24 hrs by standard twofold serial dilution method
[4] = system: Staphylococcus epidermidis; test: Antibacterial activity against methicillin-resistant Staphylococcus epidermidis 12-6 after 18 to 24 hrs by standard twofold serial dilution method
Pseudomonas aeruginosa [5] = test: Antibacterial activity against Pseudomonas aeruginosa 12-14 after 18 to 24 hrs by standard twofold serial dilution method
Pseudomonas aeruginosa [6] = test: Antibacterial activity against Pseudomonas aeruginosa 12-12 after 18 to 24 hrs by standard twofold serial dilution method
Klebsiella pneumoniae [7] = test: Antibacterial activity against extended-spectrum beta-lactamase producin Klebsiella pneumoniae 12-4 after 18 to 24 hrs by standard twofold serial dilution method
Klebsiella pneumoniae [8] = test: Antibacterial activity against Klebsiella pneumoniae 12-2 after 18 to 24 hrs by standard twofold serial dilution method
[9] = system: Staphylococcus epidermidis; test: Antibacterial activity against methicillin-resistant Staphylococcus epidermidis 12-1 after 18 to 24 hrs by standard twofold serial dilution method
Staphylococcus aureus [10] = test: Antibacterial activity against methicillin-sensitive Staphylococcus aureus 12-1 after 18 to 24 hrs by standard twofold serial dilution method
Streptococcus pneumoniae [11] = test: Antibacterial activity against Streptococcus pneumoniae ATCC 49619 after 18 to 24 hrs by standard twofold serial dilution method
Escherichia coli [12] = test: Antibacterial activity against Escherichia coli ATCC 25922 after 18 to 24 hrs by standard twofold serial dilution method
Escherichia coli [13] = test: Antibacterial activity against extended-spectrum beta-lactamase producing Escherichia coli 12-3 after 18 to 24 hrs by standard twofold serial dilution method
Staphylococcus aureus [14] = test: Antibacterial activity against methicillin-sensitive Staphylococcus aureus 12-4 after 18 to 24 hrs by standard twofold serial dilution method
Escherichia coli [15] = test: Antibacterial activity against extended-spectrum beta-lactamase producing Escherichia coli 12-15 after 18 to 24 hrs by standard twofold serial dilution method
Staphylococcus aureus [16] = test: Antibacterial activity against methicillin-sensitive Staphylococcus aureus 12-5 after 18 to 24 hrs by standard twofold serial dilution method
[17] = system: Staphylococcus epidermidis; test: Antibacterial activity against methicillin-sensitive Staphylococcus epidermidis 12-1 after 18 to 24 hrs by standard twofold serial dilution method
Klebsiella pneumoniae [18] = test: Antibacterial activity against extended-spectrum beta-lactamase producin Klebsiella pneumoniae 12-7 after 18 to 24 hrs by standard twofold serial dilution method
Escherichia coli [19] = test: Antibacterial activity against Escherichia coli 12-1 after 18 to 24 hrs by standard twofold serial dilution method
[20] = system: Mycobacterium tuberculosis; test: Antimycobacterial activity against Mycobacterium tuberculosis H37Rv ATCC 27294 by MABA method
[21] = system: Staphylococcus epidermidis; test: Antibacterial activity against methicillin-sensitive Staphylococcus epidermidis 12-3 after 18 to 24 hrs by standard twofold serial dilution method
Klebsiella pneumoniae [22] = test: Antibacterial activity against Klebsiella pneumoniae 12-4 after 18 to 24 hrs by standard twofold serial dilution method
Escherichia coli [23] = test: Antibacterial activity against extended-spectrum beta-lactamase producing Escherichia coli 12-2 after 18 to 24 hrs by standard twofold serial dilution method
Staphylococcus aureus [24] = test: Antibacterial activity against methicillin-resistant Staphylococcus aureus 12-5 after 18 to 24 hrs by standard twofold serial dilution method
Staphylococcus aureus [25] = test: Antibacterial activity against methicillin-sensitive Staphylococcus aureus 12-2 after 18 to 24 hrs by standard twofold serial dilution method
[26] = system: Staphylococcus epidermidis; test: Antibacterial activity against methicillin-sensitive Staphylococcus epidermidis 12-6 after 18 to 24 hrs by standard twofold serial dilution method
Klebsiella pneumoniae [27] = test: Antibacterial activity against extended-spectrum beta-lactamase producin Klebsiella pneumoniae 12-14 after 18 to 24 hrs by standard twofold serial dilution method
Escherichia coli [28] = test: Antibacterial activity against extended-spectrum beta-lactamase producing Escherichia coli 12-14 after 18 to 24 hrs by standard twofold serial dilution method
[29] = system: Staphylococcus epidermidis; test: Antibacterial activity against methicillin-sensitive Staphylococcus epidermidis 12-8 after 18 to 24 hrs by standard twofold serial dilution method
Klebsiella pneumoniae [30] = test: Antibacterial activity against extended-spectrum beta-lactamase producin Klebsiella pneumoniae 12-3 after 18 to 24 hrs by standard twofold serial dilution method
Staphylococcus aureus [31] = test: Antibacterial activity against methicillin-resistant Staphylococcus aureus 12-4 after 18 to 24 hrs by standard twofold serial dilution method
Staphylococcus aureus [32] = test: Antibacterial activity against Staphylococcus aureus ATCC 25923 after 18 to 24 hrs by standard twofold serial dilution method

SMILES | MIC (Streptococcus pneumoniae [1]) [µg/mL] | MIC (Staphylococcus aureus [2]) [µg/mL] | MIC (Klebsiella pneumoniae [3]) [µg/mL] | MIC [4] [µg/mL] | MIC (Pseudomonas aeruginosa [5]) [µg/mL] | MIC (Pseudomonas aeruginosa [6]) [µg/mL] | MIC (Klebsiella pneumoniae [7]) [µg/mL] | MIC (Klebsiella pneumoniae [8]) [µg/mL] | MIC [9] [µg/mL] | MIC (Staphylococcus aureus [10]) [µg/mL] | MIC (Streptococcus pneumoniae [11]) [µg/mL] | MIC (Escherichia coli [12]) [µg/mL] | MIC (Escherichia coli [13]) [µg/mL] | MIC (Staphylococcus aureus [14]) [µg/mL] | MIC (Escherichia coli [15]) [µg/mL] | MIC (Staphylococcus aureus [16]) [µg/mL] | MIC [17] [µg/mL] | MIC (Klebsiella pneumoniae [18]) [µg/mL] | MIC (Escherichia coli [19]) [µg/mL] | MIC [20] [µg/mL] | further results
CCO/N=C1/CN(c2c(F)cc3c(=O)c(C(=O)O)cn([C@@H]4C[C@@H]4F)c3c2Cl)CC1CN (stereo partly specified) | 4 (≈ 8.79 µM) | 16 (≈ 35.2 µM) | 0.5 (≈ 1.1 µM) | 16 (≈ 35.2 µM) | 32 (≈ 70.4 µM) | 4 (≈ 8.79 µM) | 32 (≈ 70.4 µM) | 1 (≈ 2.2 µM) | 4 (≈ 8.79 µM) | 0.25 (≈ 0.55 µM) | 1 (≈ 2.2 µM) | 0.5 (≈ 1.1 µM) | 32 (≈ 70.4 µM) | 0.25 (≈ 0.55 µM) | > 128 | 0.25 (≈ 0.55 µM) | 0.5 (≈ 1.1 µM) | 4 (≈ 8.79 µM) | 2 (≈ 4.4 µM) | 4 (≈ 8.79 µM) | MIC [21]: 1 µg/mL (≈ 2.2 µM); MIC (Klebsiella pneumoniae [22]): 1 µg/mL (≈ 2.2 µM); MIC (Escherichia coli [23]): 128 µg/mL (≈ 281 µM); MIC (Staphylococcus aureus [24]): 16 µg/mL (≈ 35.2 µM); MIC (Staphylococcus aureus [25]): 0.125 µg/mL (≈ 0.275 µM); MIC [26]: 0.25 µg/mL (≈ 0.55 µM); MIC (Klebsiella pneumoniae [27]): 64 µg/mL (≈ 141 µM); MIC (Escherichia coli [28]): 128 µg/mL (≈ 281 µM); MIC [29]: 2 µg/mL (≈ 4.4 µM); MIC (Klebsiella pneumoniae [30]): 32 µg/mL (≈ 70.4 µM); MIC (Staphylococcus aureus [31]): 16 µg/mL (≈ 35.2 µM); MIC (Staphylococcus aureus [32]): 0.5 µg/mL (≈ 1.1 µM)
CCO/N=C1/CN(c2cc3c(cc2F)c(=O)c(C(=O)O)cn3[C@@H]2C[C@@H]2F)[C@H]1CN | 1 (≈ 2.46 µM) | 16 (≈ 39.4 µM) | 0.06 (≈ 0.148 µM) | 8 (≈ 19.7 µM) | 32 (≈ 78.7 µM) | 0.5 (≈ 1.23 µM) | 8 (≈ 19.7 µM) | 0.06 (≈ 0.148 µM) | 4 (≈ 9.84 µM) | 0.125 (≈ 0.308 µM) | 0.06 (≈ 0.148 µM) | 0.03 (≈ 0.0738 µM) | 8 (≈ 19.7 µM) | 0.06 (≈ 0.148 µM) | 128 (≈ 315 µM) | 0.125 (≈ 0.308 µM) | 0.125 (≈ 0.308 µM) | 0.5 (≈ 1.23 µM) | 0.125 (≈ 0.308 µM) | 2 (≈ 4.92 µM) | MIC [21]: 0.5 µg/mL (≈ 1.23 µM); MIC (Klebsiella pneumoniae [22]): 0.06 µg/mL (≈ 0.148 µM); MIC (Escherichia coli [23]): 32 µg/mL (≈ 78.7 µM); MIC (Staphylococcus aureus [24]): 16 µg/mL (≈ 39.4 µM); MIC (Staphylococcus aureus [25]): 0.06 µg/mL (≈ 0.148 µM); MIC [26]: 0.125 µg/mL (≈ 0.308 µM); MIC (Klebsiella pneumoniae [27]): 32 µg/mL (≈ 78.7 µM); MIC (Escherichia coli [28]): 16 µg/mL (≈ 39.4 µM); MIC [29]: 2 µg/mL (≈ 4.92 µM); MIC (Klebsiella pneumoniae [30]): 32 µg/mL (≈ 78.7 µM); MIC (Staphylococcus aureus [31]): 32 µg/mL (≈ 78.7 µM); MIC (Staphylococcus aureus [32]): 0.03 µg/mL (≈ 0.0738 µM)
CO/N=C1/CN(c2cc3c(cc2F)c(=O)c(C(=O)O)cn3[C@@H]2C[C@@H]2F)CC1CN (stereo partly specified) | 0.25 (≈ 0.615 µM) | 16 (≈ 39.4 µM) | 0.25 (≈ 0.615 µM) | 0.125 (≈ 0.308 µM) | 2 (≈ 4.92 µM) | 2 (≈ 4.92 µM) | 16 (≈ 39.4 µM) | 0.25 (≈ 0.615 µM) | 2 (≈ 4.92 µM) | 0.125 (≈ 0.308 µM) | 0.03 (≈ 0.0738 µM) | 0.03 (≈ 0.0738 µM) | 32 (≈ 78.7 µM) | 0.06 (≈ 0.148 µM) | 128 (≈ 315 µM) | 0.125 (≈ 0.308 µM) | 0.06 (≈ 0.148 µM) | 1 (≈ 2.46 µM) | 0.25 (≈ 0.615 µM) | 1 (≈ 2.46 µM) | MIC [21]: 0.06 µg/mL (≈ 0.148 µM); MIC (Klebsiella pneumoniae [22]): 0.25 µg/mL (≈ 0.615 µM); MIC (Escherichia coli [23]): 128 µg/mL (≈ 315 µM); MIC (Staphylococcus aureus [24]): 8 µg/mL (≈ 19.7 µM); MIC (Staphylococcus aureus [25]): 0.125 µg/mL (≈ 0.308 µM); MIC [26]: 0.125 µg/mL (≈ 0.308 µM); MIC (Klebsiella pneumoniae [27]): 64 µg/mL (≈ 157 µM); MIC (Escherichia coli [28]): 32 µg/mL (≈ 78.7 µM); MIC [29]: 0.25 µg/mL (≈ 0.615 µM); MIC (Klebsiella pneumoniae [30]): 32 µg/mL (≈ 78.7 µM); MIC (Staphylococcus aureus [31]): 4 µg/mL (≈ 9.84 µM); MIC (Staphylococcus aureus [32]): < 0.008 µg/mL
